Measurements reported in patent US10988444B2, “Antimicrobial compounds” (NEWSOUTH INNOVATIONS PTY LIMITED, priority 2016, dated 2021).
≈ marks a conversion by molar mass, not a printed value.

Key:
[1] = system: E. coli (K12); test: Minimal inhibitory concentration (MIC) assay, broth micro dilution, Example 3; assay type: cell-based; conditions: Escherichia coli; K12, MHB, 37° C., 18-24 hours; read-out: Minimum inhibitory concentration (MIC) E. coli
Protocol: (§1) Compounds 95, 96, 106, 107, 109, 117 were assessed by determining their minimum inhibitory concentration (MIC) according through broth micro dilution assay using the procedure described by M. A. Wikler, Methods for dilution antimicrobial susceptibility tests for bacteria that grow aerobically: approved standard, Clinical and Laboratory Standards Institute, 2006. Briefly, bacteria were grown to mid-log phase in Muller Hinton broth (MHB) with shaking at 120 rpm and incubated at 37° C. for 18-24 hours. Following incubation, bacteria were washed three times in PBS pH 7.4 at 3500 g for 10 minutes. After washing, bacteria were diluted with fresh MHB. The turbidity of the bacterial suspensions were adjusted so that OD660 nm was 0.1, which gave 1×10^8 cfu/ml, and then further diluted to achieve 1-2×10^5 cfu/ml as a final bacterial concentration. Each compound was diluted (250-3.9 μM) through two-fold dilution. Wells in microtitre plates were loaded with 100 μl of inoculum containing 1-2×10^5 cfu/ml bacteria. Wells without any compound and containing only bacteria were used as a negative control (i.e. no inhibition of growth). Wells without bacteria but containing compound acted as another control. The microtitre plate was wrapped with paraffin to prevent evaporation and incubated with shaking at 120 rpm and 37° C. for 18-24 hours. After incubation, spectrophotometric reading was taken. The well without any bacterial growth and showing zero spectrophotometric reading regarded as mic of the compounds.

[2] = system: S. aureus (SA38); test: as above; assay type: cell-based; conditions: Staphylococcus aureus; SA38, MHB, 37° C., 18-24 hours; read-out: Minimum inhibitory concentration (MIC) S. aureus
Protocol: as §1

[3] = system: E. coli; test: Minimal inhibitory concentration (MIC) determination, Example 1; assay type: cell-based; conditions: 24 h, MHB, 37° C.; for MIC: Escherichia coli, read-out: Minimum inhibitory concentration (MIC) E. coli
Protocol: (§2) The antibacterial activity of the compounds was determined by the determination of minimal inhibitory concentration (MIC) by following the previously published protocol (see Nizalapur, S.; Ho, K. K.; Kimyon, Ö.; Yee, E.; Berry, T.; Manefield, M.; Cranfield, C. G.; Willcox, M.; Black, D. S.; Kumar, N. Org. Biomol. Chem. 2016, 14, 3623). The compounds to be tested were dissolved and diluted in autoclaved Millipore water. A single colony of bacteria was cultured overnight in TSB at 37° C. The resulting bacteria were collected by centrifugation and re-suspended in the same volume of MHB twice. Optical density (OD) of the resulting culture was adjusted to 0.1 at 600 nm (10^8 CFU/mL) in MHB, and the adjusted culture was further diluted to […] in MHB. Then, 100 μL of the bacterial solution was added to wells of a 96-well plate containing 100 μL of serially diluted compound. Two controls were also prepared: one containing 100 μL of MHB media and 100 μL sterile water, and the other containing 100 μL of bacterial solution and 100 μL sterile water. […] The MIC value was determined as the lowest concentration of compound that inhibited the complete growth of the bacteria (i.e. OD similar to that of the control having no bacteria). Each experiment was performed in triplicate and was repeated in three independent experiments.
(§3) The results of the MIC assay are given below in Table 1.

[4] = system: S. aureus; test: as above; assay type: cell-based; conditions: MHB, 37° C., 24 h; for MIC: Staphylococcus aureus, read-out: Minimum inhibitory concentration (MIC) S. aureus
Protocol: as §2, §3

[5] = system: E. coli; test: Biofilm disruption assay, established biofilms, crystal violet staining; assay type: cell-based; conditions: 250 μM, 24 h treatment
Protocol: (§4) Bacterial cultures were grown in TSB media for overnight at 37° C. with shaking at 150 r.p.m. Cultures were diluted (1:20) in YPD medium and 200 μl aliquots were dispensed to flat bottom 96-well plate wells (Sarstedt Australia). Cultures were supplemented with varying concentrations of synthetic compounds dissolved in water. For pre-established biofilm assay, cultures were grown in 96-well plate wells overnight prior to supplementation with synthetic compounds. Control cultures were supplemented with an equal amount of DMSO. Plates were sealed with self-adhesive microplate sealers (TopSeal-A, PerkinElmer) to allow air diffusion and to prevent condensation. Cultures were incubated overnight at 37° C. with shaking at 150 r.p.m. Biofilms adhered on polystyrene substratum were quantified by crystal violet staining as described previously (see Wiegand, I.; Hilpert, K.; Hancock, R. E. W. Nat. Protocols 2008, 3 (2), 163-175). All cultures were prepared in triplicates. Error bars represent the standard error of three independent experiments (n=3).
(§5) The biofilm disruption activities of the compounds were investigated using crystal violet staining according to a previously published protocol (G. A. O'Toole, J Vis Exp, 2011, (47), pii: 2437, DOI: 10.3791/2437, 2437). The ability of compounds (34-38, 51-56, 61, 62, 65 and 66) to disrupt the established biofilms of the Gram-positive bacteria S. aureus and the Gram-negative bacteria Pseudomonas aeruginosa, Serratia marcescens and E. coli, was determined at a concentration of 250 μM. In this assay, bacterial cultures were grown on a polystyrene substratum overnight prior to treatment with the compounds. In addition, the ability of these compounds to inhibit the formation of biofilms of P. aeruginosa and S. marcescens was also investigated at 250 μM, whereby the bacterial cultures were grown in the presence of test compounds.

[6] = system: S. marcescens; test: Biofilm inhibition assay (inhibition of biofilm formation), crystal violet staining; assay type: cell-based; conditions: Serratia marcescens, 24 h
Protocol: as §4, with “no-established” for “pre-established”, “along” for “prior to supplementation”, “water.” for “DMSO.”
as §5

[7] = system: S. marcescens; test: Biofilm disruption assay, established biofilms, crystal violet staining; assay type: cell-based, Serratia marcescens; conditions: 250 μM, 24 h treatment
Protocol: as §4, §5

[8] = system: S. aureus; test: as above; assay type: cell-based; conditions: 250 μM, 24 h treatment
Protocol: as §4, §5

[9] = system: Pseudomonas aeruginosa (PAO1); test: as above; assay type: cell-based; conditions: 250 μM, 24 h treatment
Protocol: as §4, §5

N=C(N)NCCNC(=O)[C@H](Cc1c[nH]c2ccccc12)NC(=O)c1cc(F)ccc1NC(=O)c1ccc2ccccc2c1 [Compound 107, (S)—N-(4-Fluoro-2-((1-((2-guanidinoethyl)amino)-3-(1H-indol-3-yl)-1-oxopropan-2-yl)carbamoyl)phenyl)-2-naphthamide]
MIC [1]: 125 µM (≈ 72.5 µg/mL)
MIC [2]: 1.8 µM (≈ 1.04 µg/mL)

Cl.N=C(N)NCCCNC(=O)C(=O)c1cc(F)ccc1NC(=O)c1ccc2ccccc2c1 [Compound 37, N-(4-Fluoro-2-(2-((3-guanidinopropyl)amino)-2-oxoacetyl)phenyl)-2-naphthamide hydrochloride]
MIC [3]: 59 µg/mL
MIC [4]: 30 µg/mL
disruption of established biofilms of E. coli [5]: 53%
inhibition at 250 µM [6]: 74%

N=C(N)NCCNC(=O)[C@H](Cc1c[nH]c2ccccc12)NC(=O)c1cc(Br)ccc1NC(=O)c1ccc2ccccc2c1 [Compound 106, (S)—N-(4-Bromo-2-((1-((2-guanidinoethyl)amino)-3-(1H-indol-3-yl)-1-oxopropan-2-yl)carbamoyl)phenyl)-2-naphthamide]
MIC [1]: 15.6 µM (≈ 9.99 µg/mL)
MIC [2]: 3.9 µM (≈ 2.5 µg/mL)

Cl.N=C(N)NCCCC[C@H](NC(=O)C(=O)c1ccccc1NC(=O)c1ccc2ccccc2c1)C(=O)O [Compound 51, N^2-(2-(2-(2-naphthamido)phenyl)-2-oxoacetyl)-N^6-carbamimidoyllysine hydrochloride]
MIC [3]: 66 µg/mL
MIC [4]: 53 µg/mL
disruption of established biofilms of S. marcescens [7]: 48%

NCCNC(=O)[C@H](Cc1c[nH]c2ccccc12)NC(=O)c1cc(F)ccc1NC(=O)c1ccc2ccccc2c1 [Compound 96, (S)—N-(2-((1-((2-Aminoethyl)amino)-3-(1H-indol-3-yl)-1-oxopropan-2-yl)carbamoyl)-4-fluorophenyl)-2-naphthamide]
MIC [1]: 15.6 µM (≈ 8.39 µg/mL)
MIC [2]: 7.8 µM (≈ 4.19 µg/mL)

Cc1ccc(NC(=O)c2ccc3ccccc3c2)c(C(=O)C(=O)NCCCNC(=N)N)c1.Cl [Compound 38, N-(2-(2-((3-Guanidinopropyl)amino)-2-oxoacetyl)-4-methylphenyl)-2-naphthamide hydrochloride]
MIC [3]: > 110 µg/mL
MIC [4]: 93 µg/mL

CC(=O)C(CCCCNC(=N)N)NC(=O)C(=O)c1cc(Br)ccc1NC(=O)c1ccc2ccccc2c1.Cl (stereo not drawn) [Compound 56, N-(4-bromo-2-(2-((7-guanidino-2-oxoheptan-3-yl)amino)-2-oxoacetyl)phenyl)-2-naphthamide hydrochloride]
MIC [3]: 19 µg/mL
MIC [4]: > 140 µg/mL
inhibition at 250 µM [6]: 61%

Cl.N=C(N)NCCCC[C@H](NC(=O)C(=O)c1cc(Br)ccc1NC(=O)c1ccc2ccccc2c1)C(=O)O [Compound 52, N^2-(2-(2-(2-naphthamido)-5-bromophenyl)-2-oxoacetyl)-N^6-carbamimidoyllysine hydrochloride]
MIC [3]: 77 µg/mL
MIC [4]: 77 µg/mL
disruption of established biofilms of S. aureus [8]: 42%
inhibition at 250 µM [6]: 72%

Cc1ccc(NC(=O)c2ccc3ccccc3c2)c(C(=O)C(=O)N[C@@H](CCCCNC(=N)N)C(=O)O)c1.Cl [Compound 54, N^2-(2-(2-(2-naphthamido)-5-methylphenyl)-2-oxoacetyl)-N^6-carbamimidoyllysine hydrochloride]
MIC [3]: 68 µg/mL
Minimum inhibitory concentration (MIC) E. coli ([3]; hydrochloride): 69 µg/mL
MIC [4]: 54 µg/mL
disruption of established biofilms of P. aeruginosa [9]: 46%

Cl.N=C(N)NCCCNC(=O)C(=O)c1ccccc1NC(=O)c1ccc2ccccc2c1 [Compound 34, N-(2-(2-((3-Guanidinopropyl)amino)-2-oxoacetyl)phenyl)-2-naphthamide hydrochloride]
MIC [3]: > 110 µg/mL
MIC [4]: 23 µg/mL

Gentamicin [reference compound]
Minimum inhibitory concentration (MIC) E. coli [3]: 2.5 µg/mL
Minimum inhibitory concentration (MIC) S. aureus [4]: <0.6 µg/mL

COC(=O)C(CCCN)NC(=O)C(CCCCN)NC(=O)C(=O)c1ccccc1NC(=O)c1ccc2ccccc2c1.Cl.Cl (stereo not drawn) [Compound 61, Methyl2-(2-(2-(2-(2-naphthamido)phenyl)-2-oxoacetamido)-6-aminohexanamido)-5-aminopentanoate dihydrochloride]
MIC [3]: 39 µg/mL
MIC [4]: 130 µg/mL
disruption of established biofilms of P. aeruginosa [9]: 55%
disruption of established biofilms of S. aureus [8]: 53%

COc1ccc(NC(=O)c2ccc3ccccc3c2)c(C(=O)N[C@@H](Cc2c[nH]c3ccccc23)C(=O)NCCNC(=N)N)c1 [Compound 109, (S)—N-(2-((1-((2-Guanidinoethyl)amino)-3-(1H-indol-3-yl)-1-oxopropan-2-yl)carbamoyl)-4-methoxyphenyl)-2-naphthamide]
MIC [1]: 62.5 µM (≈ 37 µg/mL)
MIC [2]: 7.8 µM (≈ 4.62 µg/mL)

CC(=O)C(CCCCNC(=N)N)NC(=O)C(=O)c1ccccc1NC(=O)c1ccc2ccccc2c1.Cl (stereo not drawn) [Compound 55, N-(2-(2-((7-guanidino-2-oxoheptan-3-yl)amino)-2-oxoacetyl)phenyl)-2-naphthamide hydrochloride]
MIC [3]: 17 µg/mL
MIC [4]: > 140 µg/mL

NCCNC(=O)[C@H](Cc1c[nH]c2ccccc12)NC(=O)c1cc(Br)ccc1NC(=O)c1ccc2ccccc2c1 [Compound 95, (S)—N-(2-((1-((2-Aminoethyl)amino)-3-(1H-indol-3-yl)-1-oxopropan-2-yl)carbamoyl)-4-bromophenyl)-2-naphthamide]
MIC [1]: > 125 µM
MIC [2]: 3.9 µM (≈ 2.33 µg/mL)

CN(C)CCNC(=O)[C@H](Cc1c[nH]c2ccccc12)NC(=O)c1cc(Br)ccc1NC(=O)c1ccc2ccccc2c1 [Compound 117, (S)-2-(2-(2-(2-Naphthamido)-5-bromobenzamido)-3-(1H-indol-3-yl)propanamido)-N,N-dimethylethan-1-aminium chloride]
MIC [1]: 125 µM
MIC [2]: 7.8 µM
